The test system of one data set is C57BL/6J mice. Nature of the data set: Tolerability in non-tumor-bearing mice. In kind it is in vivo. The note with it: for tolerability of repeated injection: daily for 5 consecutive days, 25 μg/mouse to 1 mg/mouse. The method, then:
FIGS. 6A-6I show pCF3-MMe inhibits tumor growth with enhanced biosafety relative to MMe. C57BL/6J mice were treated with 1 mg MMe, 1 mg pCF3-MMe, 1 mg MMe, 250 μg MMe, 100 μg MMe, 50 μg MMe, or 25 μg MMe for 6 hours (FIG. 6A) or 5 days (FIG. 6D). Kaplan-Meier survival curve of mice treated for 6 hours (FIG. 6B) or 5 days […], n=3-5. Numbers of mice surviving over time after a single injection (FIG. 6C) or 5 repeated doses (FIG. 6F). Significance was determined using a Mantel-Cox test (*, p<0.05; **, p<0.01). KPC1242 murine pancreatic cancer engrafted mice were treated with 1 mg pCF3-MMe or vehicle 5 days on and 2 days off (FIG. 6G). Tumors isolated from vehicle and treated mice were pictured (FIG. 6H). Tumor volume was measured ex vivo from vehicle and pCF3-MMe-treated mice (FIG. 6I). Values are mean±SD. Significant differences were determined by Student's t-test (*, p<0.05).
With the ability to detect pCF3-MMe in vitro and in vivo in hand, along with anti-tumor properties and decreased toxicity towards non-transformed cells in culture, we next compared the tolerability of pCF3-MMe in mice. Non-tumor-bearing mice received an intraperitoneal injection with decreasing amounts (1 mg, 250 μg, 100 μg, 50 μg, or 25 μg) of unsubstituted MMe or pCF3-MMe. […] […].
Given the strong safety shown from a single injection, further studies were conducted to determine if mice tolerated repeated injection using our published treatment schedule by injecting non-tumor-bearing mice daily for 5 consecutive days with doses ranging from as little as 25 μg/mouse to as much as 1 mg/mouse […] (FIG. 6D). […] Since 1 mg/mouse pCF3-MMe was well tolerated in tumor-free animals, further studies were conducted to test if pCF3-MMe could inhibit tumor growth in vivo. Mice were implanted with murine cancer cells and injected 17 days after engraftment with 1 mg pCF3-MMe (FIG. 6G). […] Taken together, trifluoromethylation of TPP^+ improves the reproducible detection, quantitative measurement, and safety profile of TPP^+-conjugated compounds while retaining potent anti-tumor effects in vivo.

Data set [1] has as its system mitochondrial respiratory complex I. Nature of the data set: Complex I derived oxygen consumption in permeabilized cells. The class given is cell-based, murine. The note with it: KPC1242 cell line, 24-hour treatment. Here is the method: Cells were plated to Seahorse XF96 cell culture microplates at 20,000 cells/well. Stock compounds in DMSO were diluted in RPMI medium to a final concentration in […] volume, incubated at 37° C. for 24 hours, centrifuged at 200×g for 2 minutes, and conditioned medium removed and replaced with serum-free RPMI […]. Oxygen consumption (OCR) and extracellular flux (ECAR) were measured after injections of oligomycin (1 mg/mL), dinitrophenol […], rotenone […], and antimycin A […]. Analysis was performed by normalizing OCR and ECAR readouts to vehicle controls. Complex I and II activity were analyzed after permeabilization of the cells.

Data set [2] has as its system AMP-Activated Protein Kinase (AMPK). Nature of the data set: Immunoblot of AMPK Thr172 phosphorylation. In kind it is cell-based, murine. The note with it: 0.7 μM MMe or 3 μM pCF3-MMe. Here is the method:
The functional consequence of inhibiting mitochondria complex I and subsequently OXPHOS is a reduction of overall ATP levels in the cell. The ability of MMe to reduce ATP levels was previously reported in numerous cancer cell types. Thus, further studies were conducted to explore if pCF3-MMe retained similar properties. […] Cells, including cancer cells, must maintain a high ATP:ADP ratio to maintain cellular functions and survival. Moreover, AMP levels rise whenever the ATP:ADP ratio decreases, and an increase in the AMP:ATP ratio signals an energetic crisis in the cell. […]
Cells were serum-starved for 24 hours followed by compound treatment for 24 hours before lysis in RIPA buffer composed of 50 mM Tris-HCl, pH 7.4, 150 mM NaCl, 0.25% v/v sodium deoxycholate, 1% v/v Nonidet P-40, 0.1% v/v SDS, 1 mM EDTA, 10 mM sodium orthovanadate, 40 mM 0-glycerol phosphate, 20 mM sodium fluoride, and protease inhibitors cocktail set III (Millipore Sigma, Cat #539134). […] Primary antibodies were detected by incubating with secondary horseradish peroxidase-conjugated antibody (Cytiva, Amersham ECL rabbit IgG-HRP, Cat #NA9340). Densitometric quantification of phosphorylated, total or actin protein levels was measured using chemiluminescence and calculated using Alpha View Software.
Background: A western blot detects proteins with antibodies after separation by electrophoresis.

We go through two compounds from patent publication US20250042925A1, “Improved Compositions and Methods for Targeting Mitochondria in Cancer Cells” (The Medical College of Wisconsin, Inc., priority 2021, published 2025).

For the compound `N=C(N)NC(=N)NCCCCCCCCCC[P+](c1ccccc1)(c1ccccc1)c1ccccc1.[Br-]` [MMe, 10-[(carbamimidamidomethanimidoyl)amino]decyl-triphenylphosphonium bromide, reference compound], the “tolerability of repeated injection” value in the data set with C57BL/6J mice was “succumbed to 4-fold lower doses”. Further, in the data set with C57BL/6J mice (single intraperitoneal injection, MMe 250 μg or 1 mg, metformin 1 mg), the “tolerability after a single injection” value is “significant and rapid mortality”. In addition, the “complex I derived OCR” value in data set [1] was “decreased complex I derived OCR”. In addition, in data set [2], the “AMPK activation (Thr172 phosphorylation)” value is on record as “significant increase in AMPK activation”.
As to `N=C(N)NC(=N)NCCCCCCCCCC[P+](c1ccc(C(F)(F)F)cc1)(c1ccc(C(F)(F)F)cc1)c1ccc(C(F)(F)F)cc1.[Br-]` [pCF3-MMe, (10-(3-carbamimidoylguanidino)decyl)tris(4-(trifluoromethyl)phenyl)phosphonium bromide], the “tolerability of repeated injection” value in the data set on C57BL/6J mice is listed as “tolerated a 1 mg dose”. The same compound came in with a mice surviving in the data set on C57BL/6J mice (single intraperitoneal injection of 1 mg) of 100%. Moreover, in data set [1], the “complex I derived OCR” value was “decreased complex I derived OCR”. Moreover, the “AMPK activation (Thr172 phosphorylation)” value in data set [2] is on record as “significant increase in AMPK activation”.
